The record followed here is US4211772A, “Benzopyran glycoside acetals and ketals” (Laboratoires Sarget, priority 1977, dated 1980).

One series deals with capillary resistance. The series can be described thus: Capillaroprotecting effects: capillary resistance. It is filed as in vivo, male OFA EOPS rats. The method, then: (§1) Capillaroprotecting effects
The capillary resistance was determined by a variant of the method of Charlier et al, Arch. Inter. Physiol.

The next series has as its target T1, Aldose Reductase (Bos taurus, UniProt P16116).
T1 construct: The enzyme is extracted from beef eye lenses; from tissue; host or cells: beef eye lenses
Kind of series: Inhibition of aldose reductase in vitro (enzyme from beef eye lenses, glyceraldehyde substrate). It is filed as biochemical. The following applies: in DMF solution, read-out: percentages of inhibition (aldose reductase); for inhibition at 100 µM: 10^-4 mole/l; for inhibition at 10 µM: 10^-5 mole/l. The text has this:
Inhibition of Aldose Reductase In Vitro
The reoxidation of NADPH coupled to the enzymatic reaction was followed spectrophotometrically at 340 nm.

The nature of series [1]: i.p. toxicity in Swiss EOPS mice, mortality at 14 days. The following applies: mouse, in vivo, ip, DMSO solution at 1/2, read-out: percentages of mortality at the end of 14 days. Here is the method:
The i.p. toxicities of certain compounds of the present invention were determined using male and female Swiss EOPS mice for administrations in DMSO solution at 1/2 under a volume of P/100.

Another series is described as follows: Solubilities in water. The following applies: water; read-out: Solubilities in water. It is filed as physicochemical.
The next series deals with carragenin edema. Kind of series: Anti-inflammatory activity: carragenin edema test. It is filed as in vivo. The following applies: Rattus norvegicus, ip, substantially alkaline pH solution, read-out: % inhibition of carragenin edema; for inhibition in vivo at 200 mg/kg: 200 mg/kg i.p.; for inhibition in vivo at 150 mg/kg: 150 mg/kg i.p.; for inhibition in vivo at 300 mg/kg: 300 mg/kg i.p.; for inhibition in vivo at 100 mg/kg: 100 mg/kg i.p. The method, then: Anti-inflammatory activity
This was determined by the carragenin edema test using male Wistar EOPS rats. Inflammation was induced by the injection of 0.1 ml of a suspension of 5% carragenin in physiological serum into the muscular bundle of the metatarsal region of the posterior paw of the animal. The test substance was administered i.p. in neutralized solution at the same time as the carragenin.
Edema was measured by plethysmometry at different times after the administration of the carragenin.
Tables IV and V show the percentages of inhibition as a function of time and of dosage for certain compounds of the present invention.
The above results were obtained for solutions of substantially alkaline
The reference experiments were performed using physiological serum brough
to a pH approximately the same as the pH of the solutions to be tested.

For a further series, the system named is capillary permeability. The series can be described thus: Capillaroprotecting effects: capillary permeability. It is filed as in vivo, conventional male Wistar rats. Here is the method:
as §1
The capillary permeability was determined by the method of Charlier et al, Arch. Inter. Physiol.

Values after ≈ are worked out from the molar mass of the structure shown. Read-outs that look alike come from different tables or passages of the source.

In the case of `O=c1ccc2cc(O[C@@H]3O[C@@H]4COC5(CCCCC5)O[C@H]4[C@H](O)[C@H]3O)c(O)cc2o1` [No. 16, 6-O-(4,6-O,O-cyclohexylidene-β-D-glucosyl) esculetol], the “capillary resistance, effect observed” value with capillary resistance (25 mg/kg i.p.) is listed as 8.8 ± 6.8 u cm Hg/h; in the series on capillary resistance (50 mg/kg i.p.), 23 ± 11.1 u cm Hg/h. The inhibition (in general, how much of the control response was suppressed) at 100 µM at Aldose Reductase is 63%. The inhibition at 10 µM on Aldose Reductase is 14%. For the same compound, the mortality (usually the share of the test organisms that died) at 336 h was 10% in series [1] (500 mg/kg i.p.), 80% in series [1] (750 mg/kg i.p.) and 80% in series [1] (1000 mg/kg i.p.). In addition, in “Solubilities in water”, the solubility came to 1250 µg/mL (≈ 2970 µM). For the same compound, the inhibition in vivo at 200 mg/kg in the series on carragenin edema (1/2 h) was 59%; with carragenin edema (1 h, 1 h 1/2), 45%; in the series with carragenin edema (1 h, 1 h), 59%; with carragenin edema (2 h, 2 h), 46%; in the series with carragenin edema (3 h, 3 h), 30%; with carragenin edema (4 h, 4 h) it was 23%. The inhibition in vivo at 200 mg/kg was 27% in the series on carragenin edema (5 h, 5 h) and 24% in the series on carragenin edema (6 h, 6 h).
Regarding `COc1ccc(-c2cc(=O)c3c(O)cc(O[C@@H]4O[C@H](CO[C@@H]5O[C@@H](C)[C@H](O)[C@H]6OC(C)(C)O[C@@H]56)[C@@H](O)[C@H](O)[C@H]4O)cc3o2)cc1O` [No. 32, 7-O-(2,3-O,O-isopropylidene-6-α-L-rhamnosyl-β-D-glucosyl)diosmitin], the mortality at 336 h in series [1] (1000 mg/kg i.p.) amounted to 0%. Also, the “percentage reduction of capillary permeability” value with capillary permeability (10 mg/kg i.p.) was 7%; in the series with capillary permeability (75 mg/kg i.p.), 32%. Further, the inhibition in vivo at 150 mg/kg in the series with carragenin edema (1/2 h) came to 5%; in the series with carragenin edema (1 h, 1 h 1/2), 37%; in the series on carragenin edema (1 h, 1 h) it was 17%; in the series on carragenin edema (2 h, 2 h), 49%; in the series with carragenin edema (3 h, 3 h), 43%; in the series on carragenin edema (4 h, 4 h), 42%. Besides, the inhibition in vivo at 150 mg/kg with carragenin edema (5 h, 5 h) turned out to be 37%; in the series with carragenin edema (6 h, 6 h) it was 34%. Moreover, the inhibition in vivo at 200 mg/kg was 8% with carragenin edema (1/2 h); 35% in the series on carragenin edema (1 h, 1 h 1/2); 16% with carragenin edema (1 h, 1 h); 43% in the series with carragenin edema (2 h, 2 h); 36% in the series on carragenin edema (3 h, 3 h); 30% in the series on carragenin edema (4 h, 4 h). The inhibition in vivo at 200 mg/kg in the series on carragenin edema (5 h, 5 h) was 20%; in the series with carragenin edema (6 h, 6 h) it was 20%. The inhibition in vivo at 300 mg/kg with carragenin edema (1/2 h) worked out at 0%; in the series on carragenin edema (1 h, 1 h 1/2), 38%; in the series on carragenin edema (1 h, 1 h) it was 8%; in the series on carragenin edema (2 h, 2 h), 44%; with carragenin edema (3 h, 3 h), 31%; in the series on carragenin edema (4 h, 4 h), 32%. For the same compound, the inhibition in vivo at 300 mg/kg in the series with carragenin edema (5 h, 5 h) was 43%; in the series on carragenin edema (6 h, 6 h), 36%.
As for `C[C@@H]1O[C@@H](O[C@H]2[C@H](Oc3cc(O)c4c(c3)OC(c3ccc(O)cc3)CC4=O)O[C@H](CO)[C@@H](O)[C@@H]2O)[C@@H]2OC(C)(C)O[C@@H]2[C@H]1O` (stereo partly drawn) [No. 8, 7-O-(2,3-O,O-isopropylidene-2-α-L-rhamnosyl-β-D-glucosyl)-naringenin], the inhibition at 100 µM on Aldose Reductase was 25%. Further, the inhibition at 10 µM at Aldose Reductase worked out at 0%. Besides, the mortality at 336 h in series [1] (500 mg/kg i.p.), in series [1] (1000 mg/kg i.p.) and in series [1] (2000 mg/kg i.p.) was 0% throughout. Besides, the inhibition in vivo at 100 mg/kg in the series with carragenin edema (1/2 h) stood at 23%; in the series with carragenin edema (1 h, 1 h 1/2), 85%; in the series on carragenin edema (1 h, 1 h) it was 64%; in the series on carragenin edema (2 h, 2 h) it was 75%; with carragenin edema (3 h, 3 h) it was 48%; in the series with carragenin edema (4 h, 4 h), 48%. Besides, the inhibition in vivo at 100 mg/kg stood at 35% in the series on carragenin edema (5 h, 5 h) and 37% in the series with carragenin edema (6 h, 6 h). For the same compound, the inhibition in vivo at 200 mg/kg stood at 9% in the series with carragenin edema (1/2 h); 70% in the series on carragenin edema (1 h, 1 h 1/2); 42% with carragenin edema (1 h, 1 h); 60% in the series with carragenin edema (2 h, 2 h); 28% in the series on carragenin edema (3 h, 3 h); 27% in the series with carragenin edema (4 h, 4 h). The inhibition in vivo at 200 mg/kg is 22% in the series on carragenin edema (5 h, 5 h) and 24% in the series on carragenin edema (6 h, 6 h). The inhibition in vivo at 300 mg/kg with carragenin edema (1/2 h) was found to be 62%; with carragenin edema (1 h, 1 h 1/2), 74%; with carragenin edema (1 h, 1 h) it was 78%; in the series with carragenin edema (2 h, 2 h), 73%; in the series on carragenin edema (3 h, 3 h), 50%; in the series with carragenin edema (4 h, 4 h) it was 50%. Further, the inhibition in vivo at 300 mg/kg in the series with carragenin edema (5 h, 5 h) came to 33%; in the series with carragenin edema (6 h, 6 h) it was 35%.
